Results reported in ChEMBL document CHEMBL3621115, “Discovery of 6-phenylimidazo[2,1-b]thiazole derivatives as a new type of FLT3 inhibitors” (Bioorg Med Chem Lett, 2015).

Columns and labels:
MV4-11 = assay: Cytotoxicity against human MV4-11 cells assessed as cell viability after 72 hrs by MTT assay; assay type: functional, cell-based; conditions: MV4-11, 72 h
HeLa = assay: Cytotoxicity against human HeLa cells assessed as cell viability after 72 hrs by MTT assay; assay type: functional, cell-based
[1] = molecular target: T1, Receptor-type tyrosine-protein kinase FLT3 (Homo sapiens, UniProt P36888); assay: Inhibition of human recombinant Flt3
T1 sequence (P36888 whole entry): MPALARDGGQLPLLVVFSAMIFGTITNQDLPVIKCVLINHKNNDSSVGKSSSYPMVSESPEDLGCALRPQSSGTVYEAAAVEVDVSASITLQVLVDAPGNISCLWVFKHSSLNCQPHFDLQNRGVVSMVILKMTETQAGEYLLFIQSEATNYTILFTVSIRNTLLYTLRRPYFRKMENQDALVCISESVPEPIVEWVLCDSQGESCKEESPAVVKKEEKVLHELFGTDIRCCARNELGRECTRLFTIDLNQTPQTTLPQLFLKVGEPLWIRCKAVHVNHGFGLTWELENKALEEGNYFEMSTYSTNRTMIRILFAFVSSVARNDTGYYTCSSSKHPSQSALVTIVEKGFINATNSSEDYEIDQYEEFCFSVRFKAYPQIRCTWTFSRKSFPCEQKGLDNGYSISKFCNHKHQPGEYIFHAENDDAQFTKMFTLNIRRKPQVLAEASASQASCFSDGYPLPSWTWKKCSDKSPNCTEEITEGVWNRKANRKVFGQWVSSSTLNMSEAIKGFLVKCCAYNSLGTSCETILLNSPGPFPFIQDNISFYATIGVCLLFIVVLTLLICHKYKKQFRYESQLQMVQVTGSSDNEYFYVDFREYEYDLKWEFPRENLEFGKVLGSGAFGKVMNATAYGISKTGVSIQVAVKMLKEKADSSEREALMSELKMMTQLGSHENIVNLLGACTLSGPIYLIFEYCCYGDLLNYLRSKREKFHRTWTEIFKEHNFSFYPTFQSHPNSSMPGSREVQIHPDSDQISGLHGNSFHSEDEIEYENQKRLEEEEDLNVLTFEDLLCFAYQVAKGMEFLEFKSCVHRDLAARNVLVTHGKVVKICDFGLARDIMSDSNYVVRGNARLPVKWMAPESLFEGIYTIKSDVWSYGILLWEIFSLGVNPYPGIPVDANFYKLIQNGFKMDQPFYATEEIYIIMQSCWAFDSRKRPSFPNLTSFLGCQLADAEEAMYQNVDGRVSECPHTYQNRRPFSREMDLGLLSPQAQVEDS

Question: Which IC50 (MV4-11) does the source give for `CCOC(=O)c1csc2nc(-c3ccc(NS(=O)(=O)c4ccc(C)cc4)cc3)cn12` here?
Answer: > 20 µM

Question: And the IC50 (HeLa)?
Answer: > 20 µM

Question: `CN(C)CCNC(=O)c1csc2nc(-c3ccc(NC(=O)Nc4cc(C(C)(C)C)on4)cc3)cn12` was tested. Which IC50 (MV4-11) did it give?
Answer: 0.0097 µM

Question: What about the IC50 [1] of the same compound?
Answer: 0.022 µM

Question: And the IC50 (HeLa)?
Answer: 20 µM

Question: What does the source list for `CCOC(=O)c1csc2nc(-c3ccc(NC(=O)Nc4ccccc4)cc3)cn12`?
Answer: IC50 (MV4-11): > 20 µM; IC50 (HeLa): > 20 µM

Question: `CCOC(=O)c1csc2nc(-c3cccc(NC(=O)CC)c3)cn12` was tested. Which IC50 (MV4-11) did it give?
Answer: > 20 µM

Question: And the IC50 (HeLa)?
Answer: > 20 µM

Question: What does the source list for `CCOC(=O)c1csc2nc(-c3ccc(NC(=O)CC)cc3)cn12`?
Answer: IC50 (MV4-11): 9.52 µM; IC50 (HeLa): > 20 µM

Question: What does the source list for `CCOC(=O)c1csc2nc(-c3cccc(NC(=O)c4ccco4)c3)cn12`?
Answer: IC50 (MV4-11): > 20 µM; IC50 (HeLa): > 20 µM

Question: For `CCOC(=O)c1csc2nc(-c3ccc(NC(=O)c4ccco4)cc3)cn12`, which IC50 (MV4-11) is on record?
Answer: 9.92 µM

Question: And the IC50 (HeLa)?
Answer: > 20 µM

Question: How did the IC50 (MV4-11) turn out when `CCOC(=O)c1csc2nc(-c3ccc(NC(=O)Nc4cc(C(C)(C)C)on4)cc3)cn12` was run?
Answer: 0.274 µM

Question: And the IC50 (HeLa)?
Answer: > 20 µM

Question: `CC(C)(C)c1cc(NC(=O)Nc2ccc(-c3cn4c(C(=O)NCCO)csc4n3)cc2)no1` was tested. Which IC50 (MV4-11) did it give?
Answer: 0.0156 µM

Question: And the IC50 (HeLa)?
Answer: > 20 µM

Question: With `CC(C)(C)c1cc(NC(=O)Nc2ccc(-c3cn4c(C(=O)NCCN5CCOCC5)csc4n3)cc2)no1` as the compound, how does the IC50 (MV4-11) read?
Answer: 0.0163 µM

Question: What about the IC50 (HeLa) of the same compound?
Answer: > 20 µM

Question: `C=CC(=O)Nc1cccc(-c2cn3c(C(=O)OCC)csc3n2)c1` was tested. Which IC50 (MV4-11) did it give?
Answer: > 20 µM

Question: What about the IC50 (HeLa) of the same compound?
Answer: > 20 µM

Question: `CCCS(=O)(=O)Nc1ccc(-c2cn3c(C(=O)OCC)csc3n2)cc1` was tested. Which IC50 (MV4-11) did it give?
Answer: > 20 µM

Question: And the IC50 (HeLa)?
Answer: > 20 µM

Question: Which results are given for `C=CC(=O)Nc1ccc(-c2cn3c(C(=O)OCC)csc3n2)cc1`?
Answer: IC50 (MV4-11): 2.93 µM; IC50 (HeLa): > 20 µM

Question: How did the IC50 (MV4-11) turn out when `CC(C)(C)c1cc(NC(=O)Nc2ccc(-c3cn4c(C(=O)NCCS(C)(=O)=O)csc4n3)cc2)no1` was run?
Answer: 0.0049 µM

Question: What about the IC50 [1] of the same compound?
Answer: 0.095 µM

Question: And the IC50 (HeLa)?
Answer: > 20 µM

Question: `CCOC(=O)c1csc2nc(-c3cccc(NC(=O)CCl)c3)cn12` was tested. Which IC50 (MV4-11) did it give?
Answer: 17.7 µM

Question: What about the IC50 (HeLa) of the same compound?
Answer: 20 µM

Question: With `CCOC(=O)c1csc2nc(-c3ccc(NC(=O)Nc4ccc(Br)cn4)cc3)cn12` as the compound, how does the IC50 (MV4-11) read?
Answer: 2.44 µM

Question: What about the IC50 (HeLa) of the same compound?
Answer: > 20 µM

Question: How did the IC50 (MV4-11) turn out when `CNC(=O)c1cc(Oc2ccc(NC(=O)Nc3ccc(Cl)c(C(F)(F)F)c3)cc2)ccn1` [SORAFENIB] was run?
Answer: 0.007 µM

Question: And the IC50 (HeLa)?
Answer: 5.23 µM

Question: For `CC(C)(C)c1cc(NC(=O)Nc2ccc(-c3cn4c(C(=O)OCCN5CCOCC5)csc4n3)cc2)no1`, which IC50 (MV4-11) is on record?
Answer: 0.146 µM

Question: And the IC50 (HeLa)?
Answer: > 20 µM

Question: For `CCOC(=O)c1csc2nc(-c3ccc(NC(=O)CCl)cc3)cn12`, which IC50 (MV4-11) is on record?
Answer: 9.07 µM

Question: And the IC50 (HeLa)?
Answer: > 20 µM
